Tests used:
A549 = test: Cytotoxicity against human A549 cells overexpressing GGT assessed as cell growth inhibition measured after 72 hrs by MTS assay; format: functional
HCT-116 = test: Cytotoxicity against human HCT-116 cells assessed as cell growth inhibition measured after 72 hrs by MTS assay; format: functional
NCI-H460 = test: Cytotoxicity against human NCI-H460 cells expressing low GGT assessed as cell growth inhibition measured after 72 hrs by MTS assay; format: functional
[1] = target: T1, Kinesin-like protein KIF11 (Homo sapiens, UniProt P52732); test: Inhibition C-terminal His-tagged KSP motor domain(1 to 369 residues) (unknown origin) expressed in bacteria assessed as inhibition of microtubule-stimulated ATPase activity preincubated for 30 mins followed by addition of ATP and measured after 15 mins by luciferase-derived luminiscence assay
T1 sequence (P52732 whole entry): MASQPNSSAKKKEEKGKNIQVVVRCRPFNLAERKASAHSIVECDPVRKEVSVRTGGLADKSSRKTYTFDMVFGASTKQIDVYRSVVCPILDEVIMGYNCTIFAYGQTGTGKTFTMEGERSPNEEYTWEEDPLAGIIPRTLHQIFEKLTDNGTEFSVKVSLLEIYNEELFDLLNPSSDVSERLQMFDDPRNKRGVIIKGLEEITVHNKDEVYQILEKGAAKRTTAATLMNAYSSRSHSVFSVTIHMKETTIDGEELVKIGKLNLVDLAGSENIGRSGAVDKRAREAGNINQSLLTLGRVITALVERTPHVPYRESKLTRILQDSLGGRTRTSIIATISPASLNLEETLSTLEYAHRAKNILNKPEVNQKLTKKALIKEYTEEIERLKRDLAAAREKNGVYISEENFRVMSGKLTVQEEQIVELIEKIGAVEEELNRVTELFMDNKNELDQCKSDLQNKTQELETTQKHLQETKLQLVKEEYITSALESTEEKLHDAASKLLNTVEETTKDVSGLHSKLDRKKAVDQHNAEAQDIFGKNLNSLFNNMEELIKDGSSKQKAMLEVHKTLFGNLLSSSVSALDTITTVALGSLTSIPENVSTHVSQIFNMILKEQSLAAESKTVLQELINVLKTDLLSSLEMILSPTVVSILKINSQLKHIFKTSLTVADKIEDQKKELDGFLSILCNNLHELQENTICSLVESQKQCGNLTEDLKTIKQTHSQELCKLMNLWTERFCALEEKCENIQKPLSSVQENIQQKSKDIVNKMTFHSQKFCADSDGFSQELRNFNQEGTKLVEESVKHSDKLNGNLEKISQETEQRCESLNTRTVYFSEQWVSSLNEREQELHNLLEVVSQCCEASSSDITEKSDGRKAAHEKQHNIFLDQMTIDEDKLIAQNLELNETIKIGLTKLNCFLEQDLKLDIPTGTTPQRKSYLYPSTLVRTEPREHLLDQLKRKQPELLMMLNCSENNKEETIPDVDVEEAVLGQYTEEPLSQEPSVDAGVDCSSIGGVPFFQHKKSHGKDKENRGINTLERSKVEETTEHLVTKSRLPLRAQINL

Row | IC50 [1] | Structure (SMILES) | GI50 (A549) | GI50 (HCT-116) | GI50 (NCI-H460)
1 | 0.042 µM | NCCOCCOCCNC(=O)C(N)CSC1(c2ccc(C(F)(F)F)cc2)c2ccccc2CCc2ccccc21 (stereo not given) | – | 0.063 µM | –
2 | 0.056 µM | CN(C)CCNC(=O)[C@@H](N)CSC1(c2ccc(C(F)(F)F)cc2)c2ccccc2CCc2ccccc21 | – | 0.115 µM | –
3 | 0.146 µM | N[C@@H](CSC1(c2ccc(C(F)(F)F)cc2)c2ccccc2CCc2ccccc21)C(=O)NCCN1CCCCC1 | – | 0.191 µM | –
4 | 0.08 µM | N[C@@H](CSC1(c2ccc(C(F)(F)F)cc2)c2ccccc2CCc2ccccc21)C(=O)NCCO | – | 0.06 µM | –

The remaining lines, values behind:

Row | Structure (SMILES) | IC50 [1] | GI50 (A549) | GI50 (HCT-116) | GI50 (NCI-H460)
5 | N[C@@H](CSC1(c2ccc(C(F)(F)F)cc2)c2ccccc2CCc2ccccc21)C(=O)O | – | 0.033 µM | 0.033 µM | 0.015 µM
6 | N[C@@H](CSC1(c2ccc(C(F)(F)F)cc2)c2ccccc2CCc2ccccc21)C(=O)NCc1ccccc1 | 0.358 µM | – | 0.282 µM | –
7 | CC(C)(C)OC(=O)N[C@@H](CSC1(c2ccc(C(F)(F)F)cc2)c2ccccc2CCc2ccccc21)C(=O)O | – | – | > 1 µM | –
8 | CC(=O)N[C@@H](CSC1(c2ccc(C(F)(F)F)cc2)c2ccccc2CCc2ccccc21)C(=O)O | – | – | > 1 µM | –

— ChEMBL document CHEMBL4732246, “Design, synthesis, and evaluation of a novel prodrug, a S-trityl--cysteine derivative targeting kinesin spindle protein” (Eur J Med Chem, 2021)
